The source of these data is patent publication US20230172882A1, “Method For Treating Pancreatic Cancer” (Lantern Pharma Inc., priority 2020, published 2023).

In general, IC50 refers to the midpoint of a concentration-inhibition curve.

Data set [1] relates to Capan-1 cell line derived xenograft tumors. Briefly: Capan-1 cell line derived xenograft tumors in SCID mice. The data set is classed as in vivo. The settings on record: 3 mg/kg intraperitoneal, thrice weekly for 3 weeks; end of study period, 60 days. How it is done:
All animal studies were carried out in compliance with National Institutes of Health Guidelines for animals. The doses were selected to be tolerated in xenografts. Capan-1 cell line derived xenograft tumors were implanted in SCID mice and treated either with (a) vehicle control of 95% saline/5% ethanol (N=3) or (b) 3 mg/kg LP-184 (N=5) administered by intraperitoneal injection over thrice weekly doses for 3 weeks. In other words, one group was treated with LP-184 and the other group was treated with the vehicle control.

In data set [2] the test system is pancreatic cancer cell lines. Briefly: Cell viability, first study of 4 pancreatic cancer cell lines, 72 h. The data set is classed as cell-based. How it is done:
(§1) Individual cell lines were treated with LP-184 for 72 hours and cell viability was assayed. IC50 values were generated from dose response curves plotted in GraphPad Prism.

Data set [3] relates to pancreatic cancer cell lines. Briefly: Cell viability, second study of pancreatic cancer cell lines, 72 h. Format: cell-based. The settings on record: treated 72 hours, range across cell lines (FIG. 2), read-out: cytotoxicity in terms of IC50 value. How it is done: as §1

As for HydroxyUreaMethyl Acylfulvene [LP-184], the “tumor volume growth / tumor regression” value in data set [1] is “Complete tumor regression”. The “potency in pancreatic cancer cell lines” value in data set [2] (FIG. 1 and FIG. 2, 72 hours) is “nanomolar potency”. The IC50 in data set [2] (first study of 4 pancreatic cancer cell lines, treated 72 hours, range across cell lines (FIG. 1), read-out: cytotoxicity in terms of IC50 values) fell in the range of 0.11 to 0.31 µM; in data set [3], 0.13 to 0.18 µM.
